The values that follow come from ChEMBL document CHEMBL4706547, “Discovery and structure-activity relationship studies of 1-aryl-1H-naphtho[2,3-d][1,2,3]triazole-4,9-dione derivatives as potent dual inhibitors of indoleamine 2,3-dioxygenase 1 (IDO1) and trytophan 2,3-dioxygenase (TDO)” (Eur J Med Chem, 2020).

pIC50: −log10 of the molar value. ≈ marks a conversion by molar mass, not a printed value. Calls of active or inactive are those of the source. The rule behind the calls is not given here. Where only a bound is given, the exact number is not on record here.

The term pIC50 denotes the negative decadic logarithm of the IC50, by convention in mol/L. As a reminder, the solubility is the dissolved amount per volume that the medium holds.

The target in series [1] is T1, Indoleamine 2,3-dioxygenase 1 (Homo sapiens, UniProt P14902).
T1 sequence (P14902 whole entry): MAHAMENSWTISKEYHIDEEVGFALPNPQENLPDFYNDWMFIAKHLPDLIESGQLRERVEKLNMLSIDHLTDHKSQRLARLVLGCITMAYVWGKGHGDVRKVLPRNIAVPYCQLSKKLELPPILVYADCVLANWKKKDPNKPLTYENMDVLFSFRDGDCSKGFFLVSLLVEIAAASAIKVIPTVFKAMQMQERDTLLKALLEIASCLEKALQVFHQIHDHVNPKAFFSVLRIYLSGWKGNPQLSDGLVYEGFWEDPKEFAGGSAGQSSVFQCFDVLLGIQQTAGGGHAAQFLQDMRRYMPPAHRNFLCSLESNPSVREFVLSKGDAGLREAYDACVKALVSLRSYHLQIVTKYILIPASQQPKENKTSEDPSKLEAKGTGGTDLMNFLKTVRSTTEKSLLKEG
Series [2] deals with T2, Tryptophan 2,3-dioxygenase (Homo sapiens, UniProt P48775). The experiment in a line: Inhibition of TDO (unknown origin) assessed as reduction in L-kynurenine formation using L-tryptophan as substrate incubated for 30 mins microplate spectrophotometry analysis.
T2 sequence (P48775 whole entry): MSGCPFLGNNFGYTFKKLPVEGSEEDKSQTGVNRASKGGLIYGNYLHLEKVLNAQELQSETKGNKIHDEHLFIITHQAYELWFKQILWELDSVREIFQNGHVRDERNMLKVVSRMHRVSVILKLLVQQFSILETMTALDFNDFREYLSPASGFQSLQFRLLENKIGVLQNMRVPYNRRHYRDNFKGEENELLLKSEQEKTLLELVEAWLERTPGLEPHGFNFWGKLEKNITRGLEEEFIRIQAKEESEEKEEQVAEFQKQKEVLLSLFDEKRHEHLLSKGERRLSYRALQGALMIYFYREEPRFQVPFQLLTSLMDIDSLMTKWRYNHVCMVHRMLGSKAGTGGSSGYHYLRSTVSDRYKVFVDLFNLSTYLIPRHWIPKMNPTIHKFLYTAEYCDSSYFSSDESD
Series [3] can be described thus: Antitumor activity against […] cells allografted in C57BL/6 mouse assessed as tumor growth inhibition at 30 mg/kg, ip administered for 11 days and measured upto 20 days relative to control. As to conditions: Hepa1-6, ip, time day <=20, read-out: TGI. Format: functional.
Another series relates to LL2. The settings on record: dose 30.0 mg/kg, time day <=20.
The target in series [4] is T2, Tryptophan 2,3-dioxygenase. Put plainly: Inhibition of TDO in human A 172 cells assessed as reduction in L-kynurenine formation using L-tryptophan as substrate incubated for 24 hrs. The format is cell-based.
Series [5] in a line: Toxicity in C57BL/6 mouse […] with […] cells assessed as effect on body weight at 30 mg/kg, ip administered for 11 days and measured upto 20 days. The settings on record: in vivo, time <=20 day. Format: organism-based. In general terms: Xenograft models place foreign cells or tissue in a host animal.
Series [6] is described as follows: Toxicity in C57BL/6 mouse […] with […] cells assessed as effect on body weight at 30 mg/kg, ip administered for 11 days and measured upto 20 days. Format: organism-based. As to conditions: in vivo, time <=20 day.
A short description of series [7]: Redox activity of compound assessed as increase in H2O2 production incubated for 15 mins by HRP-PR staining based fluorometric analysis. Format: physicochemical. As to conditions: 0.25 h.
Series [8] can be described thus: Redox activity of compound assessed as increase in H2O2 production at > 50 uM incubated for 15 mins by HRP-PR staining based fluorometric analysis relative to control. The format is physicochemical. As to conditions: 0.25 h.
A short description of series [9]: Antitumor activity against […] cells allografted in C57BL/6 mouse assessed as tumor growth inhibition at 30 mg/kg, ip administered for 11 days and measured upto 20 days relative to control. Format: functional. The settings on record: LL/2, ip, time day <=20, read-out: TGI.
Series [10] is described as follows: Solubility of compound. Format: physicochemical.
For series [11], the target named is T1, Indoleamine 2,3-dioxygenase 1. Put plainly: Inhibition of IDO1 in IFN-gamma-induced human HeLa cells assessed as reduction in L-kynurenine formation using L-tryptophan as substrate incubated for 24 hrs.

For `O=C1c2ccccc2C(=O)c2c1nnn2-c1cccc([N+](=O)[O-])c1`, the pIC50 was 7.54 in series [1] and 7.55 in series [2].
The like results for `O=C1c2ccccc2C(=O)c2c1nnn2-c1ccc2ccncc2c1` were, in that order, 7.40 and 7.47.
The like results for `O=C1c2ccccc2C(=O)c2c1nnn2-c1cc(Cl)c(F)c(Cl)c1` were, in that order, 7.48 and 7.47.
`CC(=O)Nc1cccc(-n2nnc3c2C(=O)c2ccccc2C3=O)c1`: the results for the pIC50 in series [1] and in series [2] were 7.09 and 6.88, respectively.
The like results for `O=C1c2ccccc2C(=O)c2c1nnn2-c1ccc(C(F)(F)F)c(Cl)c1` were, in that order, 7.52 and 7.60.
On the same counts, the results for `COc1ccc2c(c1)C(=O)c1nnn(-c3ccc(F)c(Cl)c3)c1C2=O` are 6.79 and 6.98.
On the same counts, the results for `O=C1c2ccccc2C(=O)c2c1nnn2-c1cccc(Cl)c1` are 7.40 and 7.44.
Consider `O=C1c2ccccc2C(=O)c2c1nnn2-c1ccc(Cl)nc1`, for which the figures for the pIC50 in [1] and in [2] were 7.57 and 7.60, respectively.
On the same counts, the results for `COC(=O)c1ccc(-n2nnc3c2C(=O)c2ccccc2C3=O)cc1` are 7.47 and 7.24.
On the same counts, the results for `O=C(O)c1cccc(-n2nnc3c2C(=O)c2ccccc2C3=O)c1` are 6.94 and 7.15.
`O=C1c2ccccc2C(=O)c2c1nnn2-c1ccc2[nH]cnc2c1`: the negative-log IC50 (pIC50) in series [1] was 7.11; in series [2] it was 6.98.
The like results for `O=C1c2ccccc2C(=O)c2c1nnn2-c1ccccc1` were, in that order, 7.00 and 7.15.
The like results for `O=C1c2ccccc2C(=O)c2c1nnn2-c1ccc(F)cc1` were, in that order, 7.24 and 7.31.
The like results for `O=C1c2ccccc2C(=O)c2c1nnn2Cc1ccccc1` were, in that order, 6.05 and 6.07.
Regarding `O=C1c2ccccc2C(=O)c2c1nnn2-c1ccc(Cl)c([N+](=O)[O-])c1`, the negative-log IC50 (pIC50) in series [1] and in series [2] was 7.82 throughout.
On to `Cc1cccc(-n2nnc3c2C(=O)c2ccccc2C3=O)c1`, for which the pIC50 in series [1] was 6.91; in [2], 7.19.
On the same counts, the results for `O=C1c2ccc(F)cc2C(=O)c2c1nnn2-c1ccc(F)c(Cl)c1` are 8.00 and 8.00.
On the same counts, the results for `O=C1c2cc(O)ccc2C(=O)c2c1nnn2-c1ccc(F)c(Cl)c1` are 6.84 and 6.77.
For the compound `O=C1c2ccccc2C(=O)c2c1nnn2-c1ccc(-c2nnn[nH]2)cc1`, the pIC50 in [1] is 7.22; in series [2] it was 7.60.
Regarding `NS(=O)(=O)NCCNc1nonc1/C(=N/O)Nc1ccc(F)c(Br)c1` [EPACADOSTAT], the inhibition in vivo at 30 mg/kg in [3] is 50%. The TGI entry in the series on LL2 is “Active”.
Turning to `O=C1c2ccccc2C(=O)c2c1nnn2-c1ccc(F)c(Cl)c1`, the pIC50 was 7.89 in series [1] and 7.85 in series [2].
As to `NS(=O)(=O)NCCNc1nonc1C(=NO)Nc1ccc(F)c(Br)c1` [EPACADOSTAT], the pIC50 in [2] is < 5.00.
As to `O=C1c2cc(F)ccc2C(=O)c2c1nnn2-c1ccc(F)c(Cl)c1`, the pIC50 in [4] was 7.23; in series [1], 8.30; in [2] it was 8.40; in [11], 7.01. In addition, the Activity result in [5] is given as “Non-Toxic”; in series [6] it was “Non-Toxic”; in series [7], “Not Active”; in [8] it was “Not Active”. Moreover, the inhibition in vivo at 30 mg/kg was found to be 80% in [3] and 62.5% in [9]. The solubility in series [10] came out at 0.16 µM (≈ 0.0553 µg/mL).
`CN1CCN(c2ccc(-n3nnc4c3C(=O)c3ccccc3C4=O)cc2)CC1`: the pIC50 in series [1] and in series [2] was < 5.00 each time.
`O=C1c2ccccc2C(=O)c2c1nnn2-c1cccc(F)c1`: the pIC50 in series [1] was 7.28; in series [2] it was 7.00.
The like results for `O=C1c2ccccc2C(=O)c2c1nnn2-c1ccc(Cl)c(F)c1` were, in that order, 7.70 and 7.74.
The like results for `COc1ccc2c(c1)C(=O)c1c(nnn1-c1ccc(F)c(Cl)c1)C2=O` were, in that order, < 5.00 and < 5.00.
On to `O=C1c2ccccc2C(=O)c2c1nnn2-c1cccnc1`, for which the results for the pIC50 in [1] and in series [2] were 7.64 and 7.68, respectively.
The like results for `O=C1c2ccc(O)cc2C(=O)c2c1nnn2-c1ccc(F)c(Cl)c1` were, in that order, 6.45 and 6.42.
On the same counts, the results for `O=C1c2ccccc2C(=O)c2c1nnn2-c1ccccc1Cl` are < 5.00 and < 5.00.
On the same counts, the results for `NS(=O)(=O)c1ccc(-n2nnc3c2C(=O)c2ccccc2C3=O)cc1` are 7.52 and 7.32.
`CN1CCN(C(=O)c2cccc(Cn3nnc4c3C(=O)c3ccccc3C4=O)c2)CC1` had a negative logarithm of the IC50 (pIC50) in series [1] of 6.18.
Turning to `N#Cc1ccc(-n2nnc3c2C(=O)c2ccccc2C3=O)cc1`, the results for the pIC50 in series [1] and in series [2] were 7.59 and 7.18, respectively.
The like results for `O=C1c2ccccc2C(=O)c2c1nnn2-c1ccc2[nH]ncc2c1` were, in that order, 7.35 and 7.38.
Regarding `O=C1c2ccccc2C(=O)c2c1nnn2-c1cnc(Cl)c(Cl)c1`, the pIC50 in series [1] was 6.95; in series [2] it was 6.61.
For the compound `O=C1c2ccccc2C(=O)c2c1nnn2-c1ccc(Cl)c(Cl)c1`, the results for the pIC50 in [1] and in series [2] were 7.64 and 7.74, respectively.
The like results for `O=C1c2ccccc2C(=O)c2c1nnn2-c1ccc([N+](=O)[O-])cc1` were, in that order, 7.48 and 7.32.
The like results for `O=C1c2ccccc2C(=O)c2c1nnn2-c1ccc(Cl)cc1` were, in that order, 7.64 and 7.82.
